From article PMC6678630 (International Journal of Molecular Sciences, 2019)

Experiments:
[1] = molecular target: T1, human GIPR (Homo sapiens, UniProt P48546); experiment: CRE-Luc cAMP-responsive luciferase reporter assay, GIP receptor; assay type: cell-based
T1 construct: expressed in transfected cells; host or cells: HEK-293 (transient, with Cre-luc reporter)
T1 sequence (P48546 22-466): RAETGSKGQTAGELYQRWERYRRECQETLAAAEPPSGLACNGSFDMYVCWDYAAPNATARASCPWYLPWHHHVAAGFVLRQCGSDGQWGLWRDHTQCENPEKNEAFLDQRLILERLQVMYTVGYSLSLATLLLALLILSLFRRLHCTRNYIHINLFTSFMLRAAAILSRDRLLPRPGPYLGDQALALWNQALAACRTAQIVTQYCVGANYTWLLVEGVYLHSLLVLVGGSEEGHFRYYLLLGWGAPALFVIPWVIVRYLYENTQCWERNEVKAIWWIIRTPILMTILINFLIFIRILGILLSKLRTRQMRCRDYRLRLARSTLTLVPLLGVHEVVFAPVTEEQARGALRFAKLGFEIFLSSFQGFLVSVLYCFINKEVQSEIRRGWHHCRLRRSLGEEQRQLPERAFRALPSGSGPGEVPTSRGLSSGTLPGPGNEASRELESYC
Method: (§1) The start codon of SYFP2 was replaced by PCR with an XbaI site, and a NotI site was inserted behind the stop codon of SYFP2. The resulting fusion of receptor-SYFP2 was cloned in pcDNA3.
(§2) HEK-293 and Flip-In HEK-293 cells (Invitrogen) were cultured in Dulbecco’s modified Eagle’s media supplemented with 10% foetal calf serum, 100 U/mL penicillin and 100 µg/mL streptomycin. Cells were maintained at 37 °C in a humidified environment containing 5% CO2. HEK-293 cells were transiently transfected using Effectene (Qiagen, Hilden, Germany), following the manufacturer’s protocol. In order to generate stable cell lines Flip-In HEK-293 cells were transfected with the pcDNA5.FRT vector and pOG44 using Effectene. Stable isogenic clones were selected by the addition of hygromycin (100 µg/mL).
(§3) Twenty-four hours after transfection, the cells were seeded into white 96-well plates (Thermo Scientific, Roskilde, Denmark). Twenty-four hours later, the cells were incubated for 3 h in medium containing peptide ligand and then lysed. Luciferase activity was quantified using LucLite reagent (PerkinElmer Life and Analytic Sciences, Wellesley, MA, USA).
(§4) Dose-response curves represent the mean ± S.E.M from at least three independent experiments, each performed in triplicates. […] The dose-response data were fitted to a sigmoidal curve using nonlinear regression, and the EC50 values calculated with the aid of GraphPad 8.0 (GraphPad Dan Diego, CA, USA). The values in Table 1 represent the mean ± S.E.M calculated from the pEC50 (−logEC50) values from at least three independent experiments. Statistical analysis of significance was calculated with GraphPad 8.0 using a two˗tailed, unpaired Student’s t-test.

[2] = molecular target: T2, human glucagon receptor (GCGR) (Homo sapiens, UniProt P47871); experiment: CRE-Luc cAMP-responsive luciferase reporter assay, glucagon receptor; assay type: cell-based
T2 construct: expressed in transfected cells; host or cells: HEK-293 (transient, with Cre-luc reporter)
T2 sequence (P47871 26-477): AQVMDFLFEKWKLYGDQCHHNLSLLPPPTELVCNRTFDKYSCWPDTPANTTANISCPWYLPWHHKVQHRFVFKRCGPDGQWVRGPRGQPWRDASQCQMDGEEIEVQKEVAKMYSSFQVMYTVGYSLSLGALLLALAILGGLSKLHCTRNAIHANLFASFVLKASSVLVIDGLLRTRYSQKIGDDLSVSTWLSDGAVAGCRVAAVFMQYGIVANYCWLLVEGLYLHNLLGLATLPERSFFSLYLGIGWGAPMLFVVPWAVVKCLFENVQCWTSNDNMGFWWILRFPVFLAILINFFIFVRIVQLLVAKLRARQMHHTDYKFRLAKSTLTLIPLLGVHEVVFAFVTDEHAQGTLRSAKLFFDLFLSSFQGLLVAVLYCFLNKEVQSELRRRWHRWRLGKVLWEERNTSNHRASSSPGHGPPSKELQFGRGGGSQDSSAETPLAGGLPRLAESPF
Method: as §1, §2, §3, §4

[3] = molecular target: T3, human GLP-1R (Homo sapiens, UniProt P43220); experiment: CRE-Luc cAMP-responsive luciferase reporter assay, GLP-1 receptor; assay type: cell-based
T3 construct: expressed in transfected cells; host or cells: HEK-293 (transient, with Cre-luc reporter)
T3 sequence (P43220 24-463): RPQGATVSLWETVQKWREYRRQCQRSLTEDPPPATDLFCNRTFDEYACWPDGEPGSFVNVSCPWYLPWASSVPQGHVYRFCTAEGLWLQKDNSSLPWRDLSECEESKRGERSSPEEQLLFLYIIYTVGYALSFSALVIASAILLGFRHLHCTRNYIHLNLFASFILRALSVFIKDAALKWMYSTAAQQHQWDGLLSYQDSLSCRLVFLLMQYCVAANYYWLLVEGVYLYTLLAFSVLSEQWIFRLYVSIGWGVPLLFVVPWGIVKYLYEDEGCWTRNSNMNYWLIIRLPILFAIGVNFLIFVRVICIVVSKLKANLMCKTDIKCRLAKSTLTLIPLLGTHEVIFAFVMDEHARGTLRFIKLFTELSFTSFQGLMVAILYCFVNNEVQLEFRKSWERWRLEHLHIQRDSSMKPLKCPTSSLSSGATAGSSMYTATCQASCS
Method: as §1
HEK-293 and Flip-In HEK-293 cells (Invitrogen) were cultured in Dulbecco’s modified Eagle’s media supplemented with 10% foetal calf serum, 100 U/mL penicillin and 100 µg/mL streptomycin. Cells were maintained at 37 °C in a humidified environment containing 5% CO2. HEK-293 cells were transiently transfected using Effectene (Qiagen, Hilden, Germany), following the manufacturer’s protocol. […]
Twenty-four hours after transfection, the cells were seeded into white 96-well plates (Thermo Scientific, Roskilde, Denmark). […] Luciferase activity was quantified using LucLite reagent (PerkinElmer Life and Analytic Sciences, Wellesley, MA, USA).
as §4

[4] = molecular target: T4, human GLP-1R (GLP-1R-Nluc) (Homo sapiens, UniProt P43220); experiment: BRET Gαs recruitment to GLP-1 receptor; assay type: cell-based; details: Gαs BRET (NES-Venus-Gαs), Flip-In HEK-293 cells stably expressing GLP-1R-Nluc, 15 min agonist; mean ± S.E.M., 4 independent experiments
T4 construct: expressed in transfected cells; host or cells: Flp-In HEK-293 stably expressing GLP-1R-NLuc (pcDNA5-FRT); NES-Venus-Gαs transient
T4 sequence (P43220 24-463): as above
Method: as §2, §4

[5] = system: GIPR; details: cited from earlier work
Text: (§5) Several GLP-1R agonists (e.g., exenatide, liraglutide, and semaglutide) are currently used clinically to treat both T2DM and obesity. While they reduce mortality, improve glycemic control, reduce body weight and improve cardiovascular risk factors, the use of higher doses is often limited by adverse effects such as nausea and vomiting. There is therefore the potential to improve upon the current class of GLP-1R agonists. Targeting GIPR to treat T2DM and obesity has a somewhat contradictory history. Unlike GLP-1, pharmacological doses of exogenous GIP were not found to be ins ...

[6] = system: rodent models; details: ref [26],[27]; cited from earlier work
Text: as §5

Compound: CC[C@H](C)[C@H](NC(=O)[C@H](Cc1ccccc1)NC(=O)[C@H](CCC(=O)O)NC(=O)[C@H](CCCCN)NC(=O)[C@H](C)NC(=O)[C@H](C)NC(=O)[C@H](CCC(N)=O)NC(=O)CNC(=O)[C@H](CCC(=O)O)NC(=O)[C@H](CC(C)C)NC(=O)[C@H](Cc1ccc(O)cc1)NC(=O)[C@H](CO)NC(=O)[C@H](CO)NC(=O)[C@@H](NC(=O)[C@H](CC(=O)O)NC(=O)[C@H](CO)NC(=O)[C@@H](NC(=O)[C@H](Cc1ccccc1)NC(=O)[C@@H](NC(=O)CNC(=O)[C@H](CCC(=O)O)NC(=O)[C@H](C)NC(=O)[C@@H](N)Cc1c[nH]cn1)[C@@H](C)O)[C@@H](C)O)C(C)C)C(=O)N[C@@H](C)C(=O)N[C@@H](Cc1c[nH]c2ccccc12)C(=O)N[C@@H](CC(C)C)C(=O)N[C@H](C(=O)N[C@@H](CCCCN)C(=O)NCC(=O)N[C@@H](CCCNC(=N)N)C(=O)NCC(=O)O)C(C)C [GLP-1, Glucagon-like peptide-1]
- activity at GIP receptor, in words ([1]; CRE-Luc, HEK-293 cells): Neither glucagon nor GLP-1 displayed any detectable activity
- activity at glucagon receptor, in words ([2]; CRE-Luc, HEK-293 cells, concentrations up to 1 µM): could not be detected

Compound: CC[C@H](C)[C@H](NC(=O)[C@H](CO)NC(=O)[C@H](Cc1ccc(O)cc1)NC(=O)[C@H](CC(=O)O)NC(=O)[C@H](CO)NC(=O)[C@@H](NC(=O)[C@H](Cc1ccccc1)NC(=O)[C@@H](NC(=O)CNC(=O)[C@H](CCC(=O)O)NC(=O)C(C)(C)NC(=O)[C@@H](N)Cc1ccc(O)cc1)[C@@H](C)O)[C@@H](C)O)C(=O)N[C@@H](Cc1ccc(O)cc1)C(=O)N[C@@H](CC(C)C)C(=O)N[C@@H](CC(=O)O)C(=O)N[C@@H](CCCCN)C(=O)N[C@@H](CCC(N)=O)C(=O)N[C@@H](C)C(=O)N[C@@H](C)C(=O)NC(C)(C)C(=O)N[C@@H](CCC(=O)O)C(=O)N[C@@H](Cc1ccccc1)C(=O)N[C@H](C(=O)N[C@@H](CC(N)=O)C(=O)N[C@@H](Cc1c[nH]c2ccccc12)C(=O)N[C@@H](CC(C)C)C(=O)N[C@@H](CC(C)C)C(=O)N[C@@H](C)C(=O)NCC(=O)NCC(=O)N1CCC[C@H]1C(=O)N[C@@H](CO)C(=O)N[C@@H](CO)C(=O)NCC(=O)N[C@@H](C)C(=O)N1CCC[C@H]1C(=O)N1CCC[C@H]1C(=O)N1CCC[C@H]1C(=O)N[C@@H](CO)C(=O)N[C@@H](CCCCN)C(N)=O)C(C)C [P18]
- Emax (% GIP), GIP Receptor ([1]; maximum luciferase activity as a percentage of GIP, HEK-293 cells, 3 h incubation, mean ± S.E.M., at least 3 independent experiments, ND = no detectable activity at 1 µM): 94.4 ± 4.09 % GIP
- EC50 ([1]; −logEC50/M, CRE-Luc in transiently transfected HEK-293 cells, 3 h incubation, mean ± S.E.M., at least 3 independent experiments in triplicate, ND = no detectable activity at 1 µM, P18 p < 0.05 vs GIP, read-out: pEC50, GIP Receptor (converted)): 15.8 nM
- EC50 [3]: 0.2 nM
- Emax (% GLP-1), GLP-1 Receptor ([3]; maximum luciferase activity as a percentage of GLP-1, HEK-293 cells, 3 h incubation, mean ± S.E.M., at least 3 independent experiments, ND = no detectable activity at 1 µM, glucagon p < 0.01 vs GLP-1): 106 ± 10.7 % GLP-1
- EC50 [4]: 39.8 nM
- EC50 [2]: 12600 nM
- Emax (% Glucagon), Glucagon Receptor ([2]; maximum luciferase activity as a percentage of glucagon, HEK-293 cells, 3 h incubation, mean ± S.E.M., at least 3 independent experiments, ND = no detectable activity at 1 µM, P18 p < 0.0001 vs glucagon): 22.6 ± 1.96 d % Glucagon

Compound: Pro3GIP: derivative of GIP with a glutamic acid to proline substitution at position three (YAPGTFISDYSIAMDKIHQQDFVNWLLAQKGKKNDWKHNITQ; Gastric inhibitory polypeptide; UniProt P09681 52-93, looked up, variant E3P)
- initially reported activity at GIPR, in words ([5]; initial report, later contradicted, ref [26],[27]): GIPR antagonist
- activity at GIPR, in words ([5]; ref [28],[29]): low potency GIPR agonist
- protection against diabetes and obesity [6]: protective against diabetes and obesity in rodent models
